Test results reported in ChEMBL document CHEMBL4354832, “Discovery of a Covalent Inhibitor of KRASG12C (AMG 510) for the Treatment of Solid Tumors” (J Med Chem, 2020).
In brackets after ≈: the same amount, converted by molar mass. Activity calls are given as the source filed them. The rule behind the calls is not given here.

Experiments:
[1] = Half life of compound at 25 degree C; type: physicochemical
[2] = Permeability of compound across apical to basolateral membrane in MDCK2 cells at 10 to 50 uM incubated for 2 hrs under shaking condition by LC-MS/MS analysis; type: ADME, cell-based, Canis lupus familiaris, MDCK-II; settings: dog, MDCK; read-out: permeability
[3] = Half life in BALB/c mouse at 1 mg/kg, iv or 10 mg/kg, po; type: ADME, organism-based; settings: in vivo
[4] = Solubility of compound in 0.01N HCl at pH 2 incubated for 48 to 72 hrs under shaking conditions by LCMS analysis; type: physicochemical
GTPase KRas [5] = biological target: GTPase KRas (Homo sapiens, UniProt P01116, C118A/G12C); assay: Inhibition of GDP bound recombinant human His-tagged KRAS G12C/C118A mutant (1 to 169 residues) assessed as reduction in SOS1-mediated GDP/GTP nucleotide exchange by measuring the disruption between GDP-bound recombinant His-tagged KRAS G12C/C118A (1 to 169 residues) and Ras binding domain of GST-tagged c-RAF (1 to 149 residues) preincubated for 5 mins followed by SOS1 and GTP addition and further incubated for 30 mins by AlphaLISA assay
[6] = Solubility of compound in PBS buffer at pH 7.4 incubated for 48 to 72 hrs under shaking conditions by LCMS analysis; type: physicochemical
[7] = Solubility of compound in FaSSIF incubated for 48 to 72 hrs under shaking conditions by LCMS analysis; type: physicochemical
MIA PaCa-2 = assay: Antiproliferative activity against human MIAPaCa2 cells harboring KRAS G12C point mutant assessed as cell growth inhibition after 72 hrs by Celltiter-Glo luminescent cell viability assay; type: functional, cell-based; settings: MIA PaCa-2, 72 h
GTPase KRas [8] = biological target: GTPase KRas (Homo sapiens, UniProt P01116); assay: Inhibition of KRAS in human MIAPaca2 cells assessed as decrease in EGF-stimulated ERK1/2 phosphorylation preincubated for 2 hrs followed by EGF stimulation; type: cell-based
[9] = Intrinsic clearance in mouse cryopreserved hepatocytes assessed per 10^6 cells at 0.5 uM measured upto 60 mins by LCMS analysis; type: ADME, cell-based, Hepatocyte; settings: read-out: CLH
A549 = assay: Antiproliferative activity against human A549 cells harboring KRAS G12S point mutant assessed as cell growth inhibition after 72 hrs by Celltiter-Glo luminescent cell viability assay; type: functional, cell-based; settings: A549, 72 h
[10] = Intrinsic clearance in human cryopreserved hepatocytes assessed per 10^6 cells at 0.5 uM measured upto 60 mins by LCMS analysis; type: ADME, cell-based, Hepatocyte; settings: read-out: CLH
[11] = Volume of distribution at steady state in BALB/c mouse at 1 mg/kg, iv or 10 mg/kg, po; type: ADME, organism-based; settings: in vivo, read-out: Vdss
[12] = Clearance in BALB/c mouse at 1 mg/kg, iv or 10 mg/kg, po; type: ADME, organism-based; settings: in vivo
[13] = Oral bioavailability in BALB/c mouse at 10 mg/kg; type: ADME, organism-based; settings: in vivo
[14] = Ratio of unbound plasma concentration in BALB/c mouse at 10 mg/kg to IC50 for inhibition of KRAS in human MIAPaca2 cells assessed as decrease in EGF-stimulated ERK1/2 phosphorylation preincubated for 2 hrs followed by EGF stimulation; type: organism-based; settings: in vivo
[15] = Protein binding in BALB/c mouse plasma assessed as unbound fraction by ultracentrifugation; type: ADME, cell-free
Mus musculus = assay: Decrease in ERK1/ERK2 phosphorylation in human MIAPaCa2 cells xenografted in athymic nude mouse at 10 to 100 mg/kg, po administered as single dose measured after 60 to 120 mins post-treatment; type: functional, organism-based

SMILES	t1/2 [1] [h]	Papp A→B at 2 h, up to 50 µM [2] [nm/s]	half-life [3] [min]	solubility thermodynamic [4] [µM]	IC50 (GTPase KRas [5]) [µM]	solubility thermodynamic [6] [µM]	solubility thermodynamic [7] [µM]	IC50 (MIA PaCa-2) [µM]	IC50 (GTPase KRas [8]) [µM]	hepatocyte CLint at 0.5 µM [9] [µL/min/1e6 cells]	IC50 (A549) [µM]	hepatocyte CLint at 0.5 µM [10] [µL/min/1e6 cells]	Vd [11] [L/kg]	clearance [12] [L/h/kg]	bioavailability [13] [%]	Ratio [14]	fraction unbound [15]	inhibition (Mus musculus)
C=CC(=O)N1CCN(c2nc(=O)n(-c3ccccc3C(C)C)c3nc(-c4c(O)cccc4F)c(Cl)cc23)[C@@H](C)C1 (stereo in doubt; (R)-18)	5	90	78	7 (≈ 3.93 µg/mL)	0.051	9 (≈ 5.06 µg/mL)	184 (≈ 103 µg/mL)	0.005	0.044	119	14.2	38	0.4	0.4	33	–	–	–
C=CC(=O)N1CCN(c2nc(=O)n(-c3c(C4CC4)ncnc3C3CC3)c3nc(-c4c(O)cccc4F)c(Cl)cc23)[C@@H](C)C1	–	–	30	–	–	–	–	–	0.036	–	–	–	–	3.3	7	0.6	0.08	–
C=CC(=O)N1CCN(c2nc(=O)n(-c3c(C)cccc3C(C)C)c3nc(-c4c(O)cccc4F)c(Cl)cc23)[C@@H](C)C1	–	150	30 to 54	9 (≈ 5.18 µg/mL)	–	12 (≈ 6.91 µg/mL)	204 (≈ 118 µg/mL)	0.002	0.028	102	11.9	30	–	1.4 to 2.7	4 to 21	4.5	0.03	Active
C=CC(=O)N1CCN(c2nc(=O)n(-c3ccccc3C(C)C)c3nc(-c4c(O)cccc4F)c(Cl)cc23)[C@@H](C)C1 (stereo in doubt; (S)-18)	190	–	–	–	–	–	–	–	–	–	–	–	–	–	–	–	–	–
C=CC(=O)N1CCN(c2nc(=O)n(-c3c(CC)cccc3CC)c3nc(-c4c(O)cccc4F)c(Cl)cc23)[C@@H](C)C1	–	–	30	–	0.068	–	–	–	0.036	–	–	–	–	3.3	8	0.8	0.03	–
C=CC(=O)N1CCN(c2nc(=O)n(-c3c(C(C)C)ncnc3C(C)C)c3nc(-c4c(O)cccc4F)c(Cl)cc23)[C@@H](C)C1	–	–	48	–	0.021	–	–	–	0.025	–	–	–	–	2.3	13	0.8	0.03	–
C=CC(=O)N1CCN(c2nc(=O)n(-c3scnc3C(C)C)c3nc(-c4c(O)cccc4F)c(Cl)cc23)[C@@H](C)C1	–	–	66	–	–	–	–	–	0.063	–	–	–	–	2.2	22	1.5	0.02	–
C=CC(=O)N1CCN(c2nc(=O)n(-c3ccccc3C(C)C)c3nc(-c4ccccc4O)c(Cl)cc23)[C@@H](C)C1	–	180	30	57 (≈ 31 µg/mL)	–	88 (≈ 47.9 µg/mL)	299 (≈ 163 µg/mL)	0.013	–	288	12.2	82	0.8	1.7	10	–	–	–
